US4536493A, “Saturated aminocyclitol derivatives, their preparation and medicaments containing these compounds” (Baker Aktiengesellschaft, priority 1981, dated 1985)

Each compound was assayed against T1, saccharase from pig small intestinal mucosa (Sus scrofa, UniProt P56729) (assay: Saccharase inhibition test in vitro). Conditions: solubilised saccharase 0.12 SU, sucrose substrate, 0.1 M sodium maleate buffer pH 6.0, 35° C.; 1 SIU = amount inhibiting two saccharase units by 50%.
T1 construct: sucrase and isomaltase chains cleaved from one SI precursor
T1 sequence (P56729 with tags, fused parts or gaps): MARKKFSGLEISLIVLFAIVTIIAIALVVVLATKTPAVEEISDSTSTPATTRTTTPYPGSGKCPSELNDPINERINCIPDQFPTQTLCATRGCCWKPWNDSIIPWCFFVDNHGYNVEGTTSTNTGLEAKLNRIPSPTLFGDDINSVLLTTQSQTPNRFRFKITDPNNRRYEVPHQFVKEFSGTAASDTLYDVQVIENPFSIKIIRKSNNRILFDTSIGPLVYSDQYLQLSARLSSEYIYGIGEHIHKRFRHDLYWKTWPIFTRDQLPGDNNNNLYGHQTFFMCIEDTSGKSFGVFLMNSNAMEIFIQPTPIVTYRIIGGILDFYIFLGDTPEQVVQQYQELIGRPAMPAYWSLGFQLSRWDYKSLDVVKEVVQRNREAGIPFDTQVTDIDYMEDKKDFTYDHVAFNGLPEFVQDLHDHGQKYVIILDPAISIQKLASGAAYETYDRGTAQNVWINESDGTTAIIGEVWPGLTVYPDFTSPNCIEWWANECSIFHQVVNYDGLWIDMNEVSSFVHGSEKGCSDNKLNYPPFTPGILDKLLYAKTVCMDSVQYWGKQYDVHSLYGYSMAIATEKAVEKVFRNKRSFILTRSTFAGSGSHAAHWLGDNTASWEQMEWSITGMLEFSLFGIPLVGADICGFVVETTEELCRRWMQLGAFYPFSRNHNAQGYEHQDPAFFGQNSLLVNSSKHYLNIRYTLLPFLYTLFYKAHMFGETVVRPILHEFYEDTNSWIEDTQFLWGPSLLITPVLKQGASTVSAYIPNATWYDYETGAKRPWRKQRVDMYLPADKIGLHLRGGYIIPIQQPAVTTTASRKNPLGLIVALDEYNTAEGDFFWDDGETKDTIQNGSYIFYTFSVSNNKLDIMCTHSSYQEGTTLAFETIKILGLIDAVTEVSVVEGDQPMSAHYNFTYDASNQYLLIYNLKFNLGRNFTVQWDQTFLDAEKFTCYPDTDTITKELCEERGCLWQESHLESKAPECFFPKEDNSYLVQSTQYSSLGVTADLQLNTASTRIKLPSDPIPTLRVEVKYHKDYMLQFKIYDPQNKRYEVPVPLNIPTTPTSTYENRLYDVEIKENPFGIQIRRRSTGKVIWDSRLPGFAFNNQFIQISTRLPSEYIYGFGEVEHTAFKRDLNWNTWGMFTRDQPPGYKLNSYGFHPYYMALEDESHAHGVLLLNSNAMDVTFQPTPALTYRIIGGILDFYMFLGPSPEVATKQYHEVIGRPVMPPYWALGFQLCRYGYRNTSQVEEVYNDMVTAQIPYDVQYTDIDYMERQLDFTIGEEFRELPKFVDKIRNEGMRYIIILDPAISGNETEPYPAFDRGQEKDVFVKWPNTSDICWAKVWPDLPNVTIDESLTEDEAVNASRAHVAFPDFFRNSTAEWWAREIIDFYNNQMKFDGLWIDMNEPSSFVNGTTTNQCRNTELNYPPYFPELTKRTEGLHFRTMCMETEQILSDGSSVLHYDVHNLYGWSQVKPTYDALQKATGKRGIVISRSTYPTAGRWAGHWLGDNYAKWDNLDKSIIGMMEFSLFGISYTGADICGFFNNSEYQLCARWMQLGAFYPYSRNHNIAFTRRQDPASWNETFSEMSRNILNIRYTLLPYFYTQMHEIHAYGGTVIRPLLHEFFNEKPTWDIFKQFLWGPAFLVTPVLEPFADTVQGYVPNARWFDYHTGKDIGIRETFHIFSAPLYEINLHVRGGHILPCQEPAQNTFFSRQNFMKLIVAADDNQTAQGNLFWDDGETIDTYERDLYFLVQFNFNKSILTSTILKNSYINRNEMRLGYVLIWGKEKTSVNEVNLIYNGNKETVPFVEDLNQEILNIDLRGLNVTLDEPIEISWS
Format: biochemical
Description: A saccharase inhibitor unit (SIU) is defined as the amount of inhibitor which inhibits two saccharase units to the extent of 50%. A saccharase unit (SU) is the amount of enzyme which cleaves 1 μmol of sucrose into glucose and fructose in one minute under the test conditions given below. […] To perform the tests, 0.05 ml of a solution of saccharase^(1) which had been set at 0.12 SU was mixed with 0 to 20 μg of inhibitor or 0 to 20 μl of the solution for testing and made up with 0.1 M sodium maleate buffer of pH 6.0 or 0.1 ml. The mixture was equilibrated for 10 minutes at 35° C. and then mixed with 0.1 ml of a 0.05 M solution of sucrose in 0.1 M sodium maleate buffer of pH 6.0 pre-warmed to 35° C. After incubation for 20 minutes at 35° C., the saccharase reaction was stopped by addition of 1 ml of glucose oxidase reagent^(2), and incubation was continued for 30 minutes at 35° C. Thereafter 1 ml of 50% strength H2 SO4 was added and measured at 545 nm against an appropriate blank. For evaluation, the percentage inhibition of the saccharase employed is calculated and, with the aid of a glucose calibration curve, converted from the 50% inhibition point to SIU/g or SIU/liter. (1) Solubilised saccharase from pig small intestinal mucosa according to B. Borgstrom, A. Dahlquist, Acta Chem. Scand. 12, (1958), page 1997. Diluted with 0.1 M sodium maleate buffer of pH 6.0 to the appropriate SU content. (2) The glucose oxidase reagent is prepared by dissolving 2 mg of glucose oxidase (Boehringer No. 15423) in 100 ml of 0.565 M tris-HCl buffer of pH 7.0 and subsequently adding 1 ml of detergent solution (2 g of Triton X 100+8 g of 95% strength ethanol AR), 1 ml of dianisidine solution (260 mg of o-dianisidine 0.2 HCl in 20 ml of H2 O) and 0.5 ml of 0.1% strength aqueous peroxidase solution (Boehringer No. 15302).

| Compound | Effectiveness in the saccharase inhibition test in vitro (saccharase inhibitor units per g) |
| --- | --- |
| C[C@H]1O[C@H](O[C@H]2[C@H](O)[C@@H](O)[C@@H](O[C@H]3[C@H](O)[C@@H](O)C(O)O[C@@H]3CO)O[C@@H]2CO)[C@H](O)[C@@H](O)[C@@H]1N[C@H]1C[C@H](CO)[C@@H](O)[C@H](O)[C@H]1O (stereo partly shown) [Example 1] | 59 829 SIU/g |
| COC1O[C@H](C)[C@@H](N[C@H]2C[C@H](CO)[C@@H](O)[C@H](O)[C@H]2O)[C@H](O)[C@H]1O (stereo partly shown) [Example 2] | 38 850 SIU/g |
| COC1O[C@H](C)[C@@H](N[C@H]2C=C(CO)[C@@H](O)[C@H](O)[C@H]2O)[C@H](O)[C@H]1O (stereo partly shown) | 38 850 SIU/g |
| C[C@H]1O[C@H](O[C@H]2[C@H](O)[C@@H](O)[C@@H](O[C@H]3[C@H](O)[C@@H](O)C(O)O[C@@H]3CO)O[C@@H]2CO)[C@H](O)[C@@H](O)[C@@H]1N[C@H]1C=C(CO)[C@@H](O)[C@H](O)[C@H]1O (stereo partly shown) [acarbose] | 77 700 SIU/g |
